Experimental data published in PubChem BioAssay AID588356 (Sanford-Burnham Center for Chemical Genomics, 2011).
Calls of active or inactive are those of the source.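 Rule for the calls: active = mean IC50 below 20 µM; inactive = the rest.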

Biological target: Hexokinase-1 (Homo sapiens) (UniProt P19367)
Assay: hexokinase 1 activity inhibitors, potency – biochemical, set 2, resazurin fluorescence coupled readout, selectivity assay for HKDC1 inhibitor project, SAR follow-up (AID 588356)
Details: HK1 enzyme, G6PDH/diaphorase resazurin fluorescence

Chain of Hexokinase-1 (Homo sapiens) (P19367 whole entry, looked up): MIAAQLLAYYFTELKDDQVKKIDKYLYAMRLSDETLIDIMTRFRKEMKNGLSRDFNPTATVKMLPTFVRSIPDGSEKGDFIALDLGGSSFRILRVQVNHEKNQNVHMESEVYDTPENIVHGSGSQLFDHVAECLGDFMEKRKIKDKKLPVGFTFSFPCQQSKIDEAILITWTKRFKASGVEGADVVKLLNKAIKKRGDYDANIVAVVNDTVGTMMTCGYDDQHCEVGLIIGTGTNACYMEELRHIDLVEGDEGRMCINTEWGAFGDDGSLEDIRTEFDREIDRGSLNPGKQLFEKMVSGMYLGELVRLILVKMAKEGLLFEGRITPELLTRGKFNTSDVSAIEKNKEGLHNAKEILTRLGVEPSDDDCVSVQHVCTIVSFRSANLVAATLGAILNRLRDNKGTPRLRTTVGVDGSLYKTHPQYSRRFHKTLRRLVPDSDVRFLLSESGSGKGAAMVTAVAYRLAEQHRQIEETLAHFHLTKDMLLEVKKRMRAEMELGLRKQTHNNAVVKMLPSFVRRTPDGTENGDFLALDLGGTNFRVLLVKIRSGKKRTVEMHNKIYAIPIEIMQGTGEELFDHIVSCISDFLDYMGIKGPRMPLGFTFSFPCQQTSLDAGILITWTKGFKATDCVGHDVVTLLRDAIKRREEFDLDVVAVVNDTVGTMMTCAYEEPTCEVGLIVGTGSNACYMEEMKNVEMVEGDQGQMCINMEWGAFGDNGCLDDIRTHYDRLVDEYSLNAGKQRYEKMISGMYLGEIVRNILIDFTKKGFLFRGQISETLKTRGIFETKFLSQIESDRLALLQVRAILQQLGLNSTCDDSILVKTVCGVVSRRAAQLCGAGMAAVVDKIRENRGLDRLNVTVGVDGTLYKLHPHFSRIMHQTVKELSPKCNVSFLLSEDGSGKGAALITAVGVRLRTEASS

COc1cc2c(cc1OC)-c1cc(N3CCc4ccccc4C3)nc(=O)n1CC2
IC50: inactive
